Source: PubChem BioAssay (NCI)
Where “and” joins values, the source holds several entries; their conditions need not be identical. Equal entries are not always repeated.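 Tested at 5 concentrations; 48 h exposure; 96-well plates; endpoints linearly interpolated, else capped at highest concentration. Here, GI50 denotes the concentration required for 50% inhibition of growth. At the TGI there is no net growth.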

Legend:
Assay in all cases: inhibition of tumour cell growth, NCI panel, 48 h
[1] = test system: A498 renal
[2] = test system: BT-549 breast
[3] = test system: EKVX NSCLC
[4] = test system: HOP-92 NSCLC
[5] = test system: K-562 leukemia
[6] = test system: MDA-MB-435
[7] = test system: OVCAR-8 ovarian
[8] = test system: SK-MEL-2 melanoma
[9] = test system: SR leukemia
[10] = test system: UACC-62 melanoma

Structure (SMILES)	TGI [1] [µM]	TGI [2] [µM]	TGI [3] [µM]	TGI [4]	TGI [5] [µM]	TGI [6] [µM]	TGI [7]	TGI [8]	TGI [9] [µM]	TGI [10]	GI50 [1] [µM]	GI50 [2] [µM]	GI50 [3] [µM]	GI50 [4] [µM]	GI50 [5] [µM]	GI50 [6] [µM]	GI50 [7] [µM]	GI50 [8] [µM]	GI50 [9] [µM]	GI50 [10] [µM]
O=C1C=CC(=O)C1(Br)Br	27.4	24.9	29.7	40.9 µM	> 95.1	29.8	24.1 µM	31.4 µM	29.5	25.3 µM										
COc1cc2c3c(n(CCN)c(=O)c2cc1OC)-c1cc2c(cc1C3=O)OCO2	18.9	3.01	3.97	2.62 µM	> 100	2.78		10.5 µM	> 100	1.51 µM	3.48	0.959	1.59	0.82	0.0969	1.04	1.12	3.22	1.56	0.134
NCCNCC(O)CO (stereo unspecified)	> 100	> 100	> 100	> 100 µM	> 100	> 100	> 100 µM	> 100 µM	> 100	> 100 µM										
CC(CN)[C@@H]1CC[C@]2(CO)CC[C@]3(C)[C@H](CC[C@@H]4[C@@]5(C)CCC(NCCO)C(C)(C)[C@@H]5CC[C@]43C)[C@@H]12 (stereo partly specified)	23.5	16.3	5.01	2.94 µM	3.35	3.14	3.28 µM	3.42 µM	4.95	3.37 µM	11	3.77	2.1	1.3	1.54	1.7	1.69	1.8	1.94	1.8
Nc1ccc(C#Cc2cncnc2Nc2ccc(OCc3cccc(F)c3)c(Cl)c2)cc1	> 15.4	> 25	> 25	> 25 µM	> 25	> 25	> 25 µM	> 25 µM	> 25	> 25 µM	1.7	> 21	3.07	10.6	11.4	> 17.6	11.9	> 16.4	> 18	19.4
COC(=O)c1ccccc1NC(=O)C(=O)CC(=O)c1ccccc1NC1=CC(=O)C(=O)c2ccccc21	> 56.2	39.4	> 100	32.5 µM	> 100	8.59	60.9 µM	30.5 µM	> 100	24.5 µM										
O=C(Nc1cnn2ccc(N3CCC[C@@H]3c3cc(F)ccc3F)nc12)N1CC[C@H](O)C1	> 100	> 100	> 100	> 100 µM	> 100	> 100	> 100 µM	> 100 µM	> 100	> 100 µM	> 100	> 100	> 100	> 100	> 100	> 100	> 100	> 100	> 100	> 100
N#C/C(=C/C=C(\Cl)c1ccc(Cl)cc1)C(N)=O	27.7	13.9	17.4	9.72 µM	> 100	4.12	12.6 µM	> 93.6 µM	20.4	20.6 µM	13.2	7	7.74	2.47	1.47	1.93	6.39	> 52.5	2.26	5.87
CO[C@H]1[C@H](O)[C@H](O[C@H]2CC[C@@]3(C)[C@H](CC[C@@H]4[C@@H]3CC[C@]3(C)[C@@H](C5=CC(=O)OC5)CC[C@]43O)C2)O[C@@H](C)[C@@H]1O	0.0252	0.000665	0.00148	0.00571 µM and 0.0336 µM	0.0647	< 0.0001	0.00572 µM and 0.0113 µM	0.00476 µM and < 0.0175 µM	0.0273	0.00312 µM and < 0.0104 µM					0.00062				< 0.0001	
CCCCCCCCOc1ccc(/C=N/Nc2cc(C)nc3ccc(Cl)cc23)cc1	3.45	31.4	3.33	3.02 µM	4.24	3.16	4.84 µM	3.59 µM	7.12	3.49 µM	1.98	14.2	1.8	1.51	1.66	1.73	2.14	1.97	1.61	1.87
COC(=O)[C@]12CC[C@@H](C)[C@H](C)[C@@H]1C1=CC[C@@H]3[C@@]4(C)C(C=O)=C[C@@](C)(COC(C)=O)[C@@H]4[C@H](O)C[C@@]3(C)[C@]1(C)CC2	10.2	5.11	10.2	4.28 µM	9.77	5.04	10.4 µM	6.15 µM	5.4	4.1 µM	2.6	2.03	2.76	1.65	3.57	2.09	3.03	2.61	1.84	1.76
COc1c2ccccc2c(O)c2c(=O)c(C(=O)O)cn(C)c12	> 100	> 100	> 100	> 100 µM	> 100	> 100	> 100 µM	> 100 µM	> 100	> 100 µM	18.8	> 100	85.2	56.9	> 100	> 100	> 100	> 100	> 100	24.7
COc1cc2c3c(n(CCCN)c(=O)c2cc1OC)-c1ccc(F)cc1C3=O	28.5	14.4	25.1	42.9 µM	5.28	25.5	11.3 µM	34.7 µM	1.14	5.76 µM	14.2	3.81	11.6	8.91	1.24	8.16	3.07	17	0.118	0.925
CCCCn1c2c(c3ccccc3c1=O)C(=O)c1ccccc1-2	> 100	> 100	> 100	> 100 µM	> 100	> 100	> 100 µM	> 100 µM	> 100	> 100 µM										
C=C(CN1CCN(c2cccc(C(F)(F)F)c2)CC1)c1ccc(C(=O)Nc2ccccc2N)cc1	5.18	5.06	19.4	17.8 µM	8.27	0.554	17.2 µM	32.2 µM	> 50	4.89 µM	0.005	0.332	2.92	1.51	0.185	0.156	1.4	3.44	0.0568	0.409
